# Source: patent publication US20220162191A1, “SMALL MOLECULE MODULATORS OF IL-17” (LEO PHARMA A/S, priority 2019, published 2022)
# Molecular target: T1, human IL-17AA (Homo sapiens, UniProt Q16552)
# T1 construct: host or cells: HEK (human embryonic kidney) cells
# T1 sequence (Q16552 24-155) 1: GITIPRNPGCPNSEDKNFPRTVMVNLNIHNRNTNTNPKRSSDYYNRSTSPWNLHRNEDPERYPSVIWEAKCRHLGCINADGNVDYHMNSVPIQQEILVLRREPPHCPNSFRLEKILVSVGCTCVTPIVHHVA
# T1 sequence (Q16552 24-155) 2: T1 sequence (Q16552 24-155) 1
# Assay: IL-8 release assay in human epithelial keratinocytes adult (HEKa)
# Format: cell-based
# Details: 3 ng/ml human IL-17AA + 10 ng/ml human TNFalpha, 68-72 h, IL-8 by HTRF, read-out: Rel EC50 L-8 release assay
# In short: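 Adult human keratinocytes in Epilife with HKGS minus hydrocortisone, treated with compound then stimulated with final 3 ng/ml HEK-derived human IL-17AA plus 10 ng/ml TNF-alpha for 68–72 h at 37 °C; TNF-alpha alone defines 100% inhibition. Secreted IL-8 by HTRF; relative IC50 and Emax from four-parameter fits.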
row,EC50 [nM],SMILES
1,> 1000,"Cc1cnn(C)c1-c1ccc(NC(=O)[C@@H](NC(=O)C2(F)CC2)[C@H](C)c2cccc(-c3cc(N4C[C@@H]5C[C@H]4CO5)ncn3)c2)cc1 [Example 342, N-[(1S,2R)-1-[[4-(2,4-dimethylpyrazol-3-yl)phenyl]carbamoyl]-2-[3-[6-[(1S,4S)-2-oxa-5-azabicyclo[2.2.1]heptan-5-yl]pyrimidin-4-yl]phenyl]propyl]-1-fluoro-cyclopropanecarboxamide]"
2,100 to 1000,"Cc1cnn(C)c1-c1ccc(NC(=O)[C@@H](NC(=O)C2(F)CC2)[C@H](C)c2cccc(-c3cncc(N4C[C@@H]5C[C@H]4CO5)n3)c2)cc1 [Example 343, N-[(1S,2R)-1-[[4-(2,4-dimethylpyrazol-3-yl)phenyl]carbamoyl]-2-[3-[6-[(1S,4S)-2-oxa-5-azabicyclo[2.2.1]heptan-5-yl]pyrazin-2-yl]phenyl]propyl]-1-fluoro-cyclopropanecarboxamide]"
3,< 100,"Cc1cnn(C)c1-c1ccc(NC(=O)[C@@H](NC(=O)OC(C)(C)C)[C@@H](c2cccc(-c3ccnc(N4C[C@@H]5C[C@H]4CO5)c3)c2)C2CC2)cc1 [Example 346, tert-butyl N-[(1S)-1-[(R)-cyclopropyl-[3-[2-[(1S,4S)-2-oxa-5-azabicyclo[2.2.1]heptan-5-yl]-4-pyridyl]phenyl]methyl]-2-[4-(2,4-dimethylpyrazol-3-yl)anilino]-2-oxo-ethyl]carbamate]"
4,< 100,"Cc1cnn(C)c1-c1ccc(NC(=O)[C@@H](NC(=O)C2(F)CC2)[C@@H](c2cccc(-c3cncc(N4C[C@@H]5C[C@H]4CO5)c3)c2)C2CC2)cc1 [Example 347, N-[(1S)-1-[(R)-cyclopropyl-[3-[5-[(1S,4S)-2-oxa-5-azabicyclo[2.2.1]heptan-5-yl]-3-pyridyl]phenyl]methyl]-2-[4-(2,4-dimethylpyrazol-3-yl)anilino]-2-oxo-ethyl]-1-fluoro-cyclopropanecarboxamide]"
5,< 100,"Cc1cnn(C)c1-c1ccc(NC(=O)[C@@H](NC(=O)c2ccnn2C)[C@@H](c2cccc(-c3cncc(N4C[C@@H]5C[C@H]4CO5)c3)c2)C2CC2)cc1 [Example 348, N-[(1S)-1-[(R)-cyclopropyl-[3-[5-[(1S,4S)-2-oxa-5-azabicyclo[2.2.1]heptan-5-yl]-3-pyridyl]phenyl]methyl]-2-[4-(2,4-dimethylpyrazol-3-yl)anilino]-2-oxo-ethyl]-2-methyl-pyrazole-3-carboxamide]"
6,< 100,"Cc1cnn(C)c1-c1ccc(NC(=O)[C@@H](NC(=O)c2ccnn2C)[C@@H](c2cccc(-c3cncc(N4C[C@@H]5C[C@H]4CO5)n3)c2)C2CC2)cc1 [Example 349, N-[(1S)-1-[(R)-cyclopropyl-[3-[6-[(1S,4S)-2-oxa-5-azabicyclo[2.2.1]heptan-5-yl]pyrazin-2-yl]phenyl]methyl]-2-[4-(2,4-dimethylpyrazol-3-yl)anilino]-2-oxo-ethyl]-2-methyl-pyrazole-3-carboxamide]"
7,< 100,"Cc1cnn(C)c1-c1ccc(NC(=O)[C@@H](NC(=O)C2(F)CC2)[C@@H](c2cccc(-c3cncc(N4C[C@@H]5C[C@H]4CO5)n3)c2)C2CC2)cc1 [Example 350, N-[(1S)-1-[(R)-cyclopropyl-[3-[6-[(1S,4S)-2-oxa-5-azabicyclo[2.2.1]heptan-5-yl]pyrazin-2-yl]phenyl]methyl]-2-[4-(2,4-dimethylpyrazol-3-yl)anilino]-2-oxo-ethyl]-1-fluoro-cyclopropanecarboxamide]"
8,100 to 1000,"Cc1cnn(C)c1-c1ccc(NC(=O)[C@@H](NC(=O)c2ccnn2C)[C@@H](c2cccc(-c3cc(N4C[C@@H]5C[C@H]4CO5)ncn3)c2)C2CC2)cc1 [Example 351, N-[(1S)-1-[(R)-cyclopropyl-[3-[6-[(1S,4S)-2-oxa-5-azabicyclo[2.2.1]heptan-5-yl]pyrimidin-4-yl]phenyl]methyl]-2-[4-(2,4-dimethylpyrazol-3-yl)anilino]-2-oxo-ethyl]-2-methyl-pyrazole-3-carboxamide]"
9,100 to 1000,"Cc1cnn(C)c1-c1ccc(NC(=O)[C@@H](NC(=O)C2(F)CC2)[C@@H](c2cccc(-c3cc(N4C[C@@H]5C[C@H]4CO5)ncn3)c2)C2CC2)cc1 [Example 352, N-[(1S)-1-[(R)-cyclopropyl-[3-[6-[(1S,4S)-2-oxa-5-azabicyclo[2.2.1]heptan-5-yl]pyrimidin-4-yl]phenyl]methyl]-2-[4-(2,4-dimethylpyrazol-3-yl)anilino]-2-oxo-ethyl]-1-fluoro-cyclopropanecarboxamide]"
10,100 to 1000,"Cc1n[nH]c(C)c1-c1ccc(NC(=O)[C@@H](NC(=O)C2(F)CC2)[C@@H]2CCc3ccc(-c4cc(C(C)C)ncn4)cc32)cc1 [Example 353, N-[(1S)-2-[4-(3,5-dimethyl-1H-pyrazol-4-yl)anilino]-1-[(1R)-6-(6-isopropylpyrimidin-4-yl)indan-1-yl]-2-oxo-ethyl]-1-fluoro-cyclopropanecarboxamide]"
11,< 100,"Cc1n[nH]c(C)c1-c1ccc(NC(=O)[C@@H](NC(=O)C2(F)CC2)[C@@H]2CCc3ccc(-c4ccnc(N5C[C@@H]6C[C@H]5CO6)c4)cc32)cc1 [Example 354, N-[(1S)-2-[4-(3,5-dimethyl-1H-pyrazol-4-yl)anilino]-1-[(1R)-6-[2-[(1S,4S)-2-oxa-5-azabicyclo[2.2.1]heptan-5-yl]-4-pyridyl]indan-1-yl]-2-oxo-ethyl]-1-fluoro-cyclopropanecarboxamide]"
12,100 to 1000,"Cc1cnn(C)c1-c1ccc(NC(=O)[C@@H](NC(=O)C2(F)CC2)[C@@H]2CCc3ccc(-c4cc(C)c(=O)n(C(C)C)c4)cc32)cc1 [Example 355, N-[(1S)-2-[4-(2,4-dimethylpyrazol-3-yl)anilino]-1-[(1R)-6-(1-isopropyl-5-methyl-6-oxo-3-pyridyl)indan-1-yl]-2-oxo-ethyl]-1-fluoro-cyclopropanecarboxamide]"
13,100 to 1000,"Cc1n[nH]c(C)c1-c1ccc(NC(=O)[C@@H](NC(=O)C2(F)CC2)[C@@H]2CCc3ccc(-c4cc(N5C[C@@H]6C[C@H]5CO6)ncn4)cc32)cc1 [Example 356, N-[(1S)-2-[4-(3,5-dimethyl-1H-pyrazol-4-yl)anilino]-1-[(1R)-6-[6-[(1S,4S)-2-oxa-5-azabicyclo[2.2.1]heptan-5-yl]pyrimidin-4-yl]indan-1-yl]-2-oxo-ethyl]-1-fluoro-cyclopropanecarboxamide]"
14,< 100,"Cc1n[nH]c(C)c1-c1ccc(NC(=O)[C@@H](NC(=O)C2(F)CC2)[C@@H]2CCc3ccc(-c4cc(C)c(=O)n(C(C)C)c4)cc32)cc1 [Example 357, N-[(1S)-2-[4-(3,5-dimethyl-1H-pyrazol-4-yl)anilino]-1-[(1R)-6-(1-isopropyl-5-methyl-6-oxo-3-pyridyl)indan-1-yl]-2-oxo-ethyl]-1-fluoro-cyclopropanecarboxamide]"
15,< 100,"Cc1ncn(C)c1-c1ccc(NC(=O)[C@@H](NC(=O)C2(F)CC2)[C@@H]2CCc3ccc(-c4ccnc(N5C[C@@H]6C[C@H]5CO6)c4)cc32)cc1O [Example 358, N-[(1S)-2-[4-(3,5-dimethylimidazol-4-yl)-3-hydroxy-anilino]-1-[(1R)-6-[2-[(1S,4S)-2-oxa-5-azabicyclo[2.2.1]heptan-5-yl]-4-pyridyl]indan-1-yl]-2-oxo-ethyl]-1-fluoro-cyclopropanecarboxamide]"
16,100 to 1000,"Cc1cnn(C)c1-c1ccc(NC(=O)[C@@H](NC(=O)C2(F)CC2)[C@@H]2CCc3ccc(-c4ccnc(N5CC[C@H](O)C5)c4)cc32)cc1 [Example 359, N-[(1S)-2-[4-(2,4-dimethylpyrazol-3-yl)anilino]-1-[(1R)-6-[2-[(3S)-3-hydroxypyrrolidin-1-yl]-4-pyridyl]indan-1-yl]-2-oxo-ethyl]-1-fluoro-cyclopropanecarboxamide]"
17,100 to 1000,"Cc1n[nH]c(C)c1-c1ccc(NC(=O)[C@@H](NC(=O)C2(F)CC2)[C@@H]2CCc3ccc(-n4cnc(C(C)C)c4)cc32)cc1 [Example 360, N-[(1S)-2-[4-(3,5-dimethyl-1H-pyrazol-4-yl)anilino]-1-[(1R)-6-(4-isopropylimidazol-1-yl)indan-1-yl]-2-oxo-ethyl]-1-fluoro-cyclopropanecarboxamide]"
18,100 to 1000,"Cc1n[nH]c(C)c1-c1ccc(NC(=O)[C@@H](NC(=O)c2ccnn2C)[C@@H]2CCc3ccc(-n4cnc(C(C)C)c4)cc32)cc1 [Example 361, N-[(1S)-2-[4-(3,5-dimethyl-1H-pyrazol-4-yl)anilino]-1-[(1R)-6-(4-isopropylimidazol-1-yl)indan-1-yl]-2-oxo-ethyl]-2-methyl-pyrazole-3-carboxamide]"
19,< 100,"Cc1n[nH]c(C)c1-c1ccc(NC(=O)[C@@H](NC(=O)C2(F)CC2)[C@@H]2CCc3ccc(-c4ccnc(N5C[C@H]6C[C@@H]5CO6)c4)cc32)cc1 [Example 362, N-[(1S)-2-[4-(3,5-dimethyl-1H-pyrazol-4-yl)anilino]-1-[(1R)-6-[2-[(1R,4R)-2-oxa-5-azabicyclo[2.2.1]heptan-5-yl]-4-pyridyl]indan-1-yl]-2-oxo-ethyl]-1-fluoro-cyclopropanecarboxamide]"
20,< 100,"Cc1n[nH]c(C)c1-c1ccc(NC(=O)[C@@H](NC(=O)C2(F)CC2)[C@@H]2CCc3ccc(-c4ccnc(N5CC6(COC6)C5)c4)cc32)cc1 [Example 364, N-[(1S)-2-[4-(3,5-dimethyl-1H-pyrazol-4-yl)anilino]-1-[(1R)-6-[2-(6-oxa-2-azaspiro[3.3]heptan-2-yl)-4-pyridyl]indan-1-yl]-2-oxo-ethyl]-1-fluoro-cyclopropanecarboxamide]"
